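In this assay, cells in 96-well plates receive the compound at five concentrations for 48 hours. Endpoints are linearly interpolated between the surrounding concentrations. GI50 marks 50% less growth. TGI is the concentration that stops growth completely.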
Experiments:
Assay in all cases: DTP human tumour cell line panel, 48 h
786-0 renal = system: 786-0 renal
A498 renal = system: A498 renal
A549 NSCLC = system: A549 NSCLC
ACHN renal = system: ACHN renal
BT-549 breast = system: BT-549 breast
CAKI-1 renal = system: CAKI-1 renal
CCRF-CEM leukemia = system: CCRF-CEM leukemia
COLO 205 colon = system: COLO 205 colon
DU-145 prostate = system: DU-145 prostate
EKVX NSCLC = system: EKVX NSCLC
HCC-2998 colon = system: HCC-2998 colon
HCT-116 colon = system: HCT-116 colon
HCT-15 colon = system: HCT-15 colon
HL-60(TB) leukemia = system: HL-60(TB) leukemia
HOP-62 NSCLC = system: HOP-62 NSCLC
HOP-92 NSCLC = system: HOP-92 NSCLC
HS 578T breast = system: HS 578T breast
HT29 colon = system: HT29 colon
IGROV1 ovarian = system: IGROV1 ovarian
K-562 leukemia = system: K-562 leukemia
KM12 colon = system: KM12 colon
LOX IMVI melanoma = system: LOX IMVI melanoma
M14 melanoma = system: M14 melanoma
MALME-3M melanoma = system: MALME-3M melanoma
MCF7 breast = system: MCF7 breast
MDA-MB-231 breast = system: MDA-MB-231 breast
MDA-MB-435 = system: MDA-MB-435
MOLT-4 leukemia = system: MOLT-4 leukemia
NCI-H226 lung = system: NCI-H226 lung
NCI-H23 lung = system: NCI-H23 lung
NCI-H460 lung = system: NCI-H460 lung
NCI-H522 lung = system: NCI-H522 lung
NCI/ADR-RES ovarian = system: NCI/ADR-RES ovarian
OVCAR-3 ovarian = system: OVCAR-3 ovarian
OVCAR-4 ovarian = system: OVCAR-4 ovarian
OVCAR-5 ovarian = system: OVCAR-5 ovarian
OVCAR-8 ovarian = system: OVCAR-8 ovarian
PC-3 prostate = system: PC-3 prostate
RPMI-8226 leukemia = system: RPMI-8226 leukemia
RXF 393 renal = system: RXF 393 renal
SF-268 CNS = system: SF-268 CNS
SF-295 CNS = system: SF-295 CNS
SF-539 CNS = system: SF-539 CNS
SK-MEL-2 melanoma = system: SK-MEL-2 melanoma
SK-MEL-28 melanoma = system: SK-MEL-28 melanoma
SK-MEL-5 melanoma = system: SK-MEL-5 melanoma
SK-OV-3 ovarian = system: SK-OV-3 ovarian
SN12C renal = system: SN12C renal
SNB-19 CNS = system: SNB-19 CNS
SNB-75 CNS = system: SNB-75 CNS
SR leukemia = system: SR leukemia
SW-620 colon = system: SW-620 colon
T-47D breast = system: T-47D breast
TK-10 renal = system: TK-10 renal
U251 CNS = system: U251 CNS
UACC-257 melanoma = system: UACC-257 melanoma
UACC-62 melanoma = system: UACC-62 melanoma
UO-31 renal = system: UO-31 renal

## O=S(=O)(Nc1ccccc1Cl)c1ccc(-c2cnc(C3CC3)o2)cc1
786-0 renal
  GI50: 0.809 µM
  TGI: > 85.1 µM
A498 renal
  GI50: 0.0873 µM
  TGI: 0.608 µM
A549 NSCLC
  GI50: 0.867 µM
  TGI: 99.7 µM
ACHN renal
  GI50: 0.744 µM
  TGI: > 100 µM
BT-549 breast
  GI50: 2.12 µM
  TGI: 69.3 µM
CAKI-1 renal
  GI50: 0.321 µM
  TGI: 82 µM
CCRF-CEM leukemia
  GI50: 0.388 µM
  TGI: > 100 µM
COLO 205 colon
  GI50: 0.489 µM
  TGI: 5.58 µM
DU-145 prostate
  GI50: 0.94 µM
  TGI: > 100 µM
EKVX NSCLC
  GI50: 4.35 µM
  TGI: > 89.1 µM
HCC-2998 colon
  GI50: 2.54 µM
  TGI: 33.3 µM
HCT-116 colon
  GI50: 0.401 µM
  TGI: > 75.5 µM
HCT-15 colon
  GI50: 0.282 µM
  TGI: > 100 µM
HL-60(TB) leukemia
  GI50: 0.274 µM
  TGI: 0.886 µM
HOP-62 NSCLC
  GI50: 0.501 µM
  TGI: > 100 µM
HOP-92 NSCLC
  GI50: 0.324 µM
  TGI: 7.28 µM
HS 578T breast
  GI50: 0.346 µM
  TGI: > 94.9 µM
HT29 colon
  GI50: 0.331 µM
  TGI: > 41.2 µM
IGROV1 ovarian
  GI50: 0.68 µM
  TGI: > 100 µM
K-562 leukemia
  GI50: 0.0845 µM
  TGI: > 100 µM
KM12 colon
  GI50: 0.393 µM
  TGI: 32.4 µM
LOX IMVI melanoma
  GI50: 0.79 µM
  TGI: > 90.8 µM
M14 melanoma
  GI50: 0.279 µM
  TGI: > 100 µM
MALME-3M melanoma
  GI50: 0.472 µM
  TGI: 44.3 µM
MCF7 breast
  GI50: 0.284 µM
  TGI: > 100 µM
MDA-MB-231 breast
  GI50: 1.92 µM
  TGI: 84.9 µM
MDA-MB-435
  GI50: 0.0552 µM
  TGI: 0.388 µM
MOLT-4 leukemia
  GI50: 0.71 µM
  TGI: > 63.6 µM
NCI-H226 lung
  GI50: 4.84 µM
  TGI: > 68.4 µM
NCI-H23 lung
  GI50: 1.78 µM
  TGI: > 100 µM
NCI-H460 lung
  GI50: 0.397 µM
  TGI: 15.6 µM
NCI-H522 lung
  GI50: 0.26 µM
  TGI: 15.6 µM
NCI/ADR-RES ovarian
  GI50: 0.314 µM
  TGI: 65.9 µM
OVCAR-3 ovarian
  GI50: 0.303 µM
  TGI: 15.7 µM
OVCAR-4 ovarian
  GI50: 4.21 µM
  TGI: > 100 µM
OVCAR-5 ovarian
  GI50: 2.44 µM
  TGI: > 100 µM
OVCAR-8 ovarian
  GI50: 1.22 µM
  TGI: > 100 µM
PC-3 prostate
  GI50: 0.521 µM
  TGI: > 100 µM
RPMI-8226 leukemia
  GI50: 0.541 µM
  TGI: 22.7 µM
RXF 393 renal
  GI50: 0.266 µM
  TGI: 1.18 µM
SF-268 CNS
  GI50: 12.4 µM
  TGI: > 100 µM
SF-295 CNS
  GI50: 0.438 µM
  TGI: 15.3 µM
SF-539 CNS
  GI50: 0.332 µM
  TGI: 2.33 µM
SK-MEL-2 melanoma
  GI50: 0.64 µM
  TGI: > 100 µM
SK-MEL-28 melanoma
  GI50: 3.34 µM
  TGI: > 100 µM
SK-MEL-5 melanoma
  GI50: 0.453 µM
  TGI: 15.9 µM
SK-OV-3 ovarian
  GI50: 1.23 µM
  TGI: > 67.7 µM
SN12C renal
  GI50: 0.797 µM
  TGI: > 100 µM
SNB-19 CNS
  GI50: 0.642 µM
  TGI: > 100 µM
SNB-75 CNS
  GI50: 0.139 µM
  TGI: 0.599 µM
SR leukemia
  GI50: 0.0684 µM
  TGI: > 55.7 µM
SW-620 colon
  GI50: 0.312 µM
  TGI: > 100 µM
T-47D breast
  GI50: 0.464 µM
  TGI: > 54.7 µM
TK-10 renal
  GI50: 11.8 µM
  TGI: > 100 µM
U251 CNS
  GI50: 0.583 µM
  TGI: > 100 µM
UACC-257 melanoma
  GI50: 19.2 µM
  TGI: 75 µM
UACC-62 melanoma
  GI50: 0.402 µM
  TGI: 47.6 µM
UO-31 renal
  GI50: 0.832 µM
  TGI: > 77.1 µM

Reference: PubChem BioAssay (NCI)
